Assay results from patent US6699686B1, “Modified nuclear glucocorticoid receptor, fusion protein, and DNA fragments coding for said receptor and said fusion protein” (Association pour le Development de la Recherche en …, priority 1996, dated 2004).

Legend:
wild-type hGR = biological target: T1, wild-type hGR (Homo sapiens, UniProt P04150); assay: Transcriptional activation of pTAT-tk-Luc luciferase reporter in transiently transfected CV-1 cells; type: cell-based; set-up: Luciferase activity % Wild type: concentration or dose not given beside the values; conditions: for Luciferase activity % Wild type: 24 h ligand, mean of three independent assays; for EC50: ligand concentration giving 50% of maximum transcriptional response
T1 construct: expressed in transfected cells
T1 sequence (P04150 1-777): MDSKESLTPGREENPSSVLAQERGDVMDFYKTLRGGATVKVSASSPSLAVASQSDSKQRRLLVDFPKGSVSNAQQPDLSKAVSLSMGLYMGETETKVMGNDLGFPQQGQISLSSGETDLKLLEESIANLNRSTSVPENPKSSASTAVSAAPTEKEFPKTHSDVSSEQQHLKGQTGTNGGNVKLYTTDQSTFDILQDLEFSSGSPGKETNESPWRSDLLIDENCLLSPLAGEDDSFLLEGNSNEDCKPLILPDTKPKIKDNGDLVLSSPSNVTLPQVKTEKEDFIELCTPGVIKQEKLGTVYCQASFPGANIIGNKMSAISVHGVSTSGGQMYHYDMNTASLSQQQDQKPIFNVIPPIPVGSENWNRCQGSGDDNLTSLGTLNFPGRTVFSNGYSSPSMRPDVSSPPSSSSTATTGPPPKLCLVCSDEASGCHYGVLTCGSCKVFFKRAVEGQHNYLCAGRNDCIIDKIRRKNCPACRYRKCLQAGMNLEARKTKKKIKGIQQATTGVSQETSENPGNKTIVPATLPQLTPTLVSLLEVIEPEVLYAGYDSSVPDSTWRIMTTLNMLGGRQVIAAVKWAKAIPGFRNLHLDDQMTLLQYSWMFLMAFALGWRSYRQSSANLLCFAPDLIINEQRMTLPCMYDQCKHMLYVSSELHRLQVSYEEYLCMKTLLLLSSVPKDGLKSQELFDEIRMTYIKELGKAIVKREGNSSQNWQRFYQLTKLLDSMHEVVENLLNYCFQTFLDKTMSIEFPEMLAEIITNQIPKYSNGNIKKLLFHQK
Protocol: The receptors were transiently expressed in GR-free CV-1 cells, conjointly with a luciferase reporter gene under the control of the tyrosine aminotransferase promoter (pTAT-tk-Luc).
After transfection, the cells were incubated for 24 hours with increasing concentrations of Dex, and they were then subjected to an assay of the β-galactosidase and luciferase activities, as described in “Materials and Methods”. The luciferase activity was normalized with the β-galactosidase activity, and the value obtained in the absence of ligand was subtracted for each point. The results were expressed as a percentage of the maximum luciferase activity obtained for each receptor. Each point is the mean±standard deviation of the mean of four separate determinations carried out in duplicate. […] The [^3H] steroid attached was measured after treatment with dextran-coated charcoal. The results presented are those for a single assay carried out in duplicate and representative of three separate assays.
Co-transfections were carried out and dose-response curves were constructed as described in FIG. 2. […] The assays of luciferase and β-galactosidase activity were carried out as described in “Materials and Methods”. The mean values of three independent assays are given in this table. nm=not measurable.
The CV-1 and Cos-7 cells were cultured in Dulbeco's modified Eagle's medium (DMEM) containing 10% (v/v) of fetal calf serum (FCS) (Gibco, Grand Island, N.Y.), in a humidified atmosphere containing 5% CO2. The HeLa cells were cultured under the same conditions. Transient transfections were carried out in 6-well multiplates according to the calcium phosphate procedure already described (42). A reference recombinant plasmid, pCMV-βgal, expressing bacterial β-galactosidase, was transfected conjointly with the receptor expression vector and the corresponding reporter gene so as to correct possible variations in he transfection efficiency. The precipitate was removed by washing after 24 hours, and the cells were kept in DMEX without FCS but containing hormone. After another 24 hours, the cells were rinsed and lysed for 15 minutes with 0.3 ml of lysis buffer [25 mM Tris.phosphate, pH 7.8, 8 mM […], 1% Triton X100, 10% glycerol (48)]. The corresponding luciferase activity as determined on an aliquot fraction (0.1 ml), by evaluation of the luminescence peak (for an integration time of 15 seconds), after injection of 0.1 ml of 1 mM luciferin in an LKB luminometer. The β-galactosidase was determined by the method modified by Bocquel et al. (49), for controlling the efficiency of each transfection.
The reporter gene pTAT-tk-Luc was provided by D. Gagne and was constructed as follows: an intermediate plasmid pTAT was first generated by insertion of the 966 bp EcoRI-BamHI segment obtained from pKT531 [offered freely by T. Grande (50)] into the corresponding sites of the vector pUC19 (Pharmacia). The fragment containing the sequence coding for the firefly luciferase and the thymidine kinase (tk) minimal promoter obtained from the Herpes simplex virus was isolated in the form of a BamHI fragment from pvit-tk-Luc (51) and inserted, downstream of the TAT promoter, into the corresponding site of pTAT. The reporter plasmid pGRE-tk-Luc was constructed by ligation of the fragment of HindIII-BglII digestion of pGRE-tk-CAT (52), which contains a synthetic GRE (AGAACAcagTGTTCT) upstream of the tk minimal promoter, into the HindIII-BglII sites of pLuc (53). The reporter gene p(17M)5-βGlob-Luc has been previously described (54). The reporter plasmid p(17M)5-tata-Luc was constructed from the plasmid p(17M)5-tata-CAT (55) by digestion with XhoI-BamHI and isolation of the fragment containing (17M5)-tata. This fragment was then inserted into the vector pGL2 (Promega) digested with the same restriction enzymes.

Cre-LBD[GR(I747/T)] = biological target: T2, Cre-LBD[GR(I747/T)] (Homo sapiens, UniProt P04150, I747T); assay: PCR test of recombinase activity in HeLa cells cotransfected with pCre-LBD[GR(I747/T)] and pRXRα(LNL); type: cell-based; conditions: ligand 10^−7 M, 72 hours
T2 construct: the region containing the mutated LBD of HG1 [aa 500-777]; Cre recombinase aa 1-343 (bacteriophage P1); F region of the human estrogen receptor (aa 553-595); expressed in transfected cells
T2 sequence (P04150 500-777 I747T): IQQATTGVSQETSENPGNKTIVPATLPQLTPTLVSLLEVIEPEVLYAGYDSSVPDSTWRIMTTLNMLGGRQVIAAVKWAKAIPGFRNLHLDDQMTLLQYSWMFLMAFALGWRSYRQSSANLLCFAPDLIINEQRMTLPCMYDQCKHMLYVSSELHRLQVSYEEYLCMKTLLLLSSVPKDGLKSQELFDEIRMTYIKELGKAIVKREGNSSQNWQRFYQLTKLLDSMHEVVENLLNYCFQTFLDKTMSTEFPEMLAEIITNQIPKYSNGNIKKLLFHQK
Protocol: [optionally cotransfected with 5 μg of the vector pRXRα^(LNL) for the HeLa cells] with the aid of an electroporator (Bio-Rad gene pulser), set at 200 V and 960 μF. The cells were then inoculated at 10^6 cells per 100 mm dish and treated, if necessary, with ligands.
The products of the reaction were separated on acrylamide gel and stained with ethidium bromide. Lane 1 corresponds to the loading of the 1 kb ladder size marker (GibcoBRL).

Row | Structure (SMILES) | stimulation of the luciferase reporter with the wild-type GR (wild-type hGR) | Luciferase activity % Wild type (wild-type hGR) [%] | EC50 (wild-type hGR) [nM] | recombinase activity (PCR band of recombinant fragment) (Cre-LBD[GR(I747/T)])
1 | C[C@]12CCC(=O)C=C1CC[C@@H]1[C@@H]2[C@@H](O)C[C@]2(C=O)[C@@H](C(=O)CO)CC[C@@H]12 [Aldosterone, aldosterone] | as effective as Dex | 90 | 50 | only the fragment corresponding to the wild-type allele can be detected
2 | C[C@]12C[C@H](O)[C@H]3[C@@H](CCC4=CC(=O)CC[C@@]43C)[C@@H]1CC[C@@H]2C(=O)CO [Corticosterone, corticosterone] | as effective as Dex | 100 | 70 | only the fragment corresponding to the wild-type allele can be detected
3 | C[C@]12CCC(=O)C=C1CC[C@@H]1[C@@H]2[C@@H](O)C[C@@]2(C)[C@H]1CC[C@]2(O)C(=O)CO [Cortisol, cortisol] | as effective as Dex | 110 |  | only the fragment corresponding to the wild-type allele can be detected
4 | C[C@@H]1C[C@H]2[C@@H]3CCC4=CC(=O)C=C[C@]4(C)[C@@]3(F)[C@@H](O)C[C@]2(C)[C@@]1(O)C(=O)CO [Dexamethasone, dexamethasone] |  | 100 |  | 
